With `CC(=O)N1CCC(Nc2ncc3c(N)cc(=O)n([C@@H]4CC[C@@H](O)C4)c3n2)CC1` (racemic) [Compound I-37, 2-(1-Acetyl-piperidin-4-ylamino)-5-amino-8-((1R,3R)-3-hydroxy-cyclopentyl)-8H-pyrido[2,3-d]pyrimidin-7-one], the melting point (as a rule, the temperature of the solid-liquid transition) fell in the range of 192 to 194 °C.
For `Cc1c(N)c2cnc(N[C@@H]3CCCC[C@@H]3C)nc2n(C2CCC2)c1=O` (racemic) [Compound I-58, 5-Amino-8-cyclobutyl-6-methyl-2-((1R,2S)-2-methyl-cyclohexylamino)-8H-pyrido[2,3-d]pyrimidin-7-one], the melting point is 160 to 161 °C.
`Cc1c(N)c2cnc(N[C@H]3CCCC[C@@H]3C)nc2n(C2CCC2)c1=O` (racemic) [Compound I-60, 5-Amino-8-cyclobutyl-6-methyl-2-((1S,2S)-2-methyl-cyclohexylamino)-8H-pyrido[2,3-d]pyrimidin-7-one] gave a melting point of 209 to 210 °C.
For the compound `COC(=O)N[C@H]1CC[C@H](Nc2ncc3c(N)cc(=O)n(C4CCC4)c3n2)CC1` [Compound I-2, [4-(5-Amino-8-cyclobutyl-7-oxo-7,8-dihydro-pyrido[2,3-d]pyrimidin-2-ylamino)-cyclohexyl]-carbamic acid methyl ester], the melting point is 154.3 to 156 °C.
Compound `Nc1c(F)c(=O)n(C2CCC2)c2nc(NC3CCCCC3)ncc12` [Compound I-4, 5-Amino-8-cyclobutyl-2-cyclohexylamino-6-fluoro-8H-pyrido[2,3-d]pyrimidin-7-one] had a melting point of 286 to 287 °C.
As to `Nc1cc(=O)n(C2CCCCC2)c2nc(N[C@H]3CC[C@H](O)CC3)ncc12` [Compound I-6, 5-Amino-8-cyclohexyl-2-(4-hydroxy-cyclohexylamino)-8H-pyrido[2,3-d]pyrimidin-7-one], the melting point was in the range of 292 to 294 °C.
With `Nc1cc(=O)n(CCCO)c2nc(NC3CCCCC3)ncc12` [Compound I-8, 5-Amino-2-cyclohexylamino-8-(3-hydroxy-propyl)-8H-pyrido[2,3-d]pyrimidin-7-one] the figure was 131 to 132.5 °C.
As to `Cc1c(N)c2cnc(N[C@H]3CC[C@H](C(=O)N4CCOCC4)CC3)nc2n(C2CCCC2)c1=O` [Compound I-10, 5-Amino-8-cyclopentyl-6-methyl-2-[4-(morpholine-4-carbonyl)-cyclohexylamino]-8H-pyrido[2,3-d]pyrimidin-7-one], the melting point lay in the range of 186.8 to 188 °C.
Consider `CC(=O)N[C@H]1CC[C@H](Nc2ncc3c(N)cc(=O)n(C4CCCC4)c3n2)CC1` [Compound I-11, N-[4-(5-Amino-8-cyclopentyl-7-oxo-7,8-dihydro-pyrido[2,3-d]pyrimidin-2-ylamino)-cyclohexyl]-acetamide], for which the melting point lay within 172.6 to 176.6 °C.
In turn, `Nc1cc(=O)n(CC2CC2)c2nc(NC3CCCCC3)ncc12` [Compound I-12, 5-Amino-2-cyclohexylamino-8-cyclopropylmethyl-8H-pyrido[2,3-d]pyrimidin-7-one] returned a melting point of 133 to 135 °C.
On to `Nc1cc(=O)n(C2CCCC2)c2nc(N[C@H]3CC[C@H](C(=O)N4CCOCC4)CC3)ncc12` [Compound I-13, 5-Amino-8-cyclopentyl-2-[4-(morpholine-4-carbonyl)-cyclohexylamino]-8H-pyrido[2,3-d]pyrimidin-7-one], for which the melting point was in the range of 292.5 to 295.3 °C.
The compound `CS(=O)(=O)N[C@H]1CC[C@H](Nc2ncc3c(N)cc(=O)n(C4CCCCC4)c3n2)CC1` [Compound I-14, N-[4-(5-Amino-8-cyclohexyl-7-oxo-7,8-dihydro-pyrido[2,3-d]pyrimidin-2-ylamino)-cyclohexyl]-methanesulfonamide] registered a melting point of more than 300 °C.
Compound `Cc1c(N)c2cnc(N[C@H]3CC[C@H](C(=O)N4CCC(O)CC4)CC3)nc2n(C2CCC2)c1=O` [Compound I-15, 5-Amino-8-cyclobutyl-2-[4-(4-hydroxy-piperidine-1-carbonyl)-cyclohexylamino]-6-methyl-8H-pyrido[2,3-d]pyrimidin-7-one] had a melting point of 191.5 to 193 °C.
As to `Nc1c(-c2ccccc2Cl)c(=O)n(C2CCC2)c2nc(NC3CCCCC3)ncc12` [Compound I-16, 5-Amino-6-(2-chloro-phenyl)-8-cyclobutyl-2-cyclohexylamino-8H-pyrido[2,3-d]pyrimidin-7-one], the melting point lay within 175 to 176 °C.
The result for `Nc1cc(=O)n(C2CCCC2)c2nc(NC3CCCCC3)ncc12` [Compound I-17, 5-Amino-2-cyclohexylamino-8-cyclopentyl-8H-pyrido[2,3-d]pyrimidin-7-one] reads 125 to 130 °C; that for `CC(=O)N[C@H]1CC[C@H](Nc2ncc3c(N)cc(=O)n([C@@H]4CC[C@@H](O)C4)c3n2)CC1` [Compound I-18, N-{4-[5-Amino-8-((1R,3R)-3-hydroxy-cyclopentyl)-7-oxo-7,8-dihydro-pyrido[2,3-d]pyrimidin-2-ylamino]-cyclohexyl}-acetamide], 210 to 211.5 °C; that for `COC(=O)N[C@H]1CC[C@H](Nc2ncc3c(N)cc(=O)n(C4CCCCC4)c3n2)CC1` [Compound I-19, [4-(5-Amino-8-cyclohexyl-7-oxo-7,8-dihydro-pyrido[2,3-d]pyrimidin-2-ylamino)-cyclohexyl]-carbamic acid methyl ester], 193.9 to 198 °C.
With `Cc1c(N)c2cnc(N[C@H]3CC[C@H](C(C)(C)O)CC3)nc2n(C2CCC2)c1=O` [Compound I-20, 5-Amino-8-cyclobutyl-2-[4-(1-hydroxy-1-methyl-ethyl)-cyclohexylamino]-6-methyl-8H-pyrido[2,3-d]pyrimidin-7-one] the figure was 223 to 224.8 °C; with `CCn1c(=O)cc(N)c2cnc(NC3CCCCC3)nc21` [Compound I-21, 5-Amino-2-cyclohexylamino-8-ethyl-8H-pyrido[2,3-d]pyrimidin-7-one], 147.7 to 150.1 °C; with `Nc1cc(=O)n(C2CC2)c2nc(N[C@H]3CC[C@H](O)CC3)ncc12` [Compound I-22, 5-Amino-8-cyclopropyl-2-(4-hydroxy-cyclohexylamino)-8H-pyrido[2,3-d]pyrimidin-7-one], 256.3 to 258.7 °C.
On to `CCc1c(N)c2cnc(N[C@H]3CC[C@H](NC(C)=O)CC3)nc2n(C2CCCC2)c1=O` [Compound I-23, N-[4-(5-Amino-8-cyclopentyl-6-ethyl-7-oxo-7,8-dihydro-pyrido[2,3-d]pyrimidin-2-ylamino)-cyclohexyl]-acetamide], for which the melting point is more than 300 °C.
In turn, `Cc1c(N)c2cnc(N[C@H]3CC[C@H](N(C)S(C)(=O)=O)CC3)nc2n(C2CCC2)c1=O` [Compound I-24, N-[4-(5-Amino-8-cyclobutyl-6-methyl-7-oxo-7,8-dihydro-pyrido[2,3-d]pyrimidin-2-ylamino)-cyclohexyl]-N-methyl-methanesulfonamide] showed a melting point of 260 to 261 °C.
Regarding `CC(C)c1c(N)c2cnc(N[C@H]3CC[C@H](C(=O)N4CCC(O)CC4)CC3)nc2n(C2CCC2)c1=O` [Compound I-25, 5-Amino-8-cyclobutyl-2-[4-(4-hydroxy-piperidine-1-carbonyl)-cyclohexylamino]-6-isopropyl-8H-pyrido[2,3-d]pyrimidin-7-one], the melting point is 170 to 171 °C.
For the compound `Nc1cc(=O)n(C2CC2)c2nc(NC3CCCCC3)ncc12` [Compound I-26, 5-Amino-2-cyclohexylamino-8-cyclopropyl-8H-pyrido[2,3-d]pyrimidin-7-one], the melting point is 117 to 118 °C.
